Reference: patent US11541029B2, “High penetration compositions and their applications” (Techfields Pharma Co., Ltd., priority 2008, dated 2023)

Tests used:
[1] = tested on: diseases and insects of rice; assay: Antiviral, anti-fungus, anti-insect activity in rice; assay type: in vivo
[2] = tested on: SLAC:NOD-IDDM, type 1 diabetes; assay: Anti-diabetes (type I) activity of HPCs of NSAIAs; assay type: in vivo, mice
Method in brief: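 Prodrugs given transdermally to the shaved back (about 1.5 cm^2) twice daily at 8 am and 5 pm for 7 weeks, dosed as equal to 20 mg/kg of NSAIA. Non-fasting blood glucose was measured every 3 days at 4:30 pm from week 4 to week 7.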

[3] = tested on: SLAC/MRL/LPR mice; assay: Lupus in MRL/LPR mice treated from 16 weeks old, 30 mg/kg (10% aq.) on back skin twice per day; assay type: in vivo
Method: . Progression of lupus was monitored once a week by measurement of hematuria, body weight and survival rate. The experiments were carried out in two groups of mice. One group of mice were 8 weeks old and had not shown SLE characteristics (Table 26a). The other group of mice were 16 weeks old, and had shown SLE characteristics (Table 26b).

[4] = tested on: carotid artery thrombosis; assay: Thrombosis/stroke induced by electrical stimulation of carotid artery; assay type: in vivo, rats (Spragu Dawley)
Method: Thrombosis was induced by electrical stimulation (1 mA for 3 minutes) of the carotid artery in rats by using a thrombosis formation instrument (YLS-14A, Shandong Academy of Medical Sciences, Shandong, China). […] In group B, 100 mg/kg of diethylaminoethyl acetylsalicylate.HCl salt (10% in water) was applied to the shaved back skin of the rats (˜9 cm^2, fur was cut off) 2 hour before the operation and 1 hour after the operation, then 50 mg/kg of the HPC was applied to the back of the rats twice per day. In group C, 50 mg/kg of diethylaminoethyl acetylsalicylate.HCl was applied to the back of the rats twice per day starting from 24 hours after the operation. The recovery of motor functions of rats was evaluated every day.

[5] = group B: 100 mg/kg 2 hour before and 1 hour after operation, then 50 mg/kg twice per day
[6] = group C: 50 mg/kg twice per day starting 24 hours after the operation

## CCN(CC)CCOC(=O)c1ccccc1OC(C)=O.Cl [P-1, diethylaminoethyl acetylsalicylate.HCl salt]
[1]; 1/2 acre per group, imidacloprid co-applied in group C
  Yield of good rice: 1800 kg
[1]; group C and D
  harvest dates earlier: 5 days
[2]; equal to 20 mg/kg of NSAIAs transdermally twice per day for 7 weeks
  blood glucose, Baseline: 18.1 ± 4.5 mmol/L
[2]; fourth week to seventh week, no fasting, equal to 20 mg/kg of NSAIAs transdermally twice per day
  blood glucose, Average: 7.5 ± 1.8 mmol/L
[3]; week 16
  Body Weight: 42.6 ± 2.1 g
  Hematuria (0-4): 1.70 ± 0.26
  Survival Rate: 10/10
[3]; week 17
  Body Weight: 44.2 ± 2.0 g
  Hematuria (0-4): 1.50 ± 0.17
  Survival Rate: 10/10
[3]; week 18
  Body Weight: 46.6 ± 2.4 g
  Hematuria (0-4): 1.30 ± 0.15
  Survival Rate: 10/10
[3]; week 19
  Body Weight: 47.9 ± 2.5 g
  Hematuria (0-4): 0.80 ± 0.13
  Survival Rate: 10/10
[3]; week 20
  Body Weight: 46.8 ± 2.0 g
  Hematuria (0-4): 0.80 ± 0.13
  Survival Rate: 10/10
[3]; week 21
  Body Weight: 47.2 ± 2.2 g
  Hematuria (0-4): 0.80 ± 0.13
  Survival Rate: 10/10
[3]; week 22
  Body Weight: 47.6 ± 1.9 g
  Hematuria (0-4): 0.80 ± 0.20
  Survival Rate: 10/10
[3]; week 23
  Body Weight: 47.1 ± 2.3 g
  Hematuria (0-4): 0.80 ± 0.20
  Survival Rate: 10/10
[3]; week 24
  Body Weight: 46.8 ± 2.1 g
  Hematuria (0-4): 0.80 ± 0.20
  Survival Rate: 10/10
[3]; week 25
  Body Weight: 47.2 ± 2.0 g
  Hematuria (0-4): 0.70 ± 0.15
  Survival Rate: 10/10
[3]; week 26
  Body Weight: 46.9 ± 2.6 g
  Hematuria (0-4): 0.70 ± 0.15
  Survival Rate: 10/10
[3]; week 27
  Body Weight: 47.3 ± 2.0 g
  Hematuria (0-4): 0.60 ± 0.22
  Survival Rate: 10/10
[3]; week 28
  Body Weight: 47.6 ± 2.4 g
  Hematuria (0-4): 0.70 ± 0.15
  Survival Rate: 10/10
[3]; week 29
  Body Weight: 47.2 ± 2.5 g
  Hematuria (0-4): 0.70 ± 0.15
  Survival Rate: 10/10
[3]; week 30
  Body Weight: 46.4 ± 2.1 g
  Hematuria (0-4): 0.60 ± 0.22
  Survival Rate: 10/10
[3]; week 31
  Body Weight: 47.1 ± 2.2 g
  Hematuria (0-4): 0.80 ± 0.20
  Survival Rate: 10/10
[3]; week 32
  Body Weight: 46.6 ± 2.4 g
  Hematuria (0-4): 0.70 ± 0.15
  Survival Rate: 10/10
[3]; week 33
  Body Weight: 47.3 ± 2.1 g
  Hematuria (0-4): 0.50 ± 0.17
  Survival Rate: 10/10
[3]; week 34
  Body Weight: 47.6 ± 2.0 g
  Hematuria (0-4): 0.70 ± 0.15
  Survival Rate: 10/10
[3]; week 35
  Body Weight: 47.2 ± 2.0 g
  Hematuria (0-4): 0.70 ± 0.15
  Survival Rate: 10/10
[3]; week 36
  Body Weight: 46.9 ± 2.1 g
  Hematuria (0-4): 0.50 ± 0.17
  Survival Rate: 10/10
[3]; week 37
  Body Weight: 47.4 ± 2.7 g
  Hematuria (0-4): 0.70 ± 0.15
  Survival Rate: 10/10
[3]; week 38
  Body Weight: 46.9 ± 2.3 g
  Hematuria (0-4): 0.60 ± 0.22
  Survival Rate: 10/10
[3]; week 39
  Body Weight: 47.2 ± 2.0 g
  Hematuria (0-4): 0.50 ± 0.17
  Survival Rate: 10/10
[3]; week 40
  Body Weight: 47.6 ± 2.3 g
  Hematuria (0-4): 0.70 ± 0.15
  Survival Rate: 10/10
[3]; week 41
  Body Weight: 47.7 ± 2.2 g
  Hematuria (0-4): 0.60 ± 0.22
  Survival Rate: 10/10
[3]; week 42
  Body Weight: 46.9 ± 2.0 g
  Hematuria (0-4): 0.70 ± 0.15
  Survival Rate: 10/10
[3]; week 43
  Body Weight: 47.5 ± 2.8 g
  Hematuria (0-4): 0.60 ± 0.22
  Survival Rate: 10/10
[3]; week 44
  Body Weight: 47.6 ± 2.0 g
  Hematuria (0-4): 0.70 ± 0.15
  Survival Rate: 10/10
[3]; week 45
  Body Weight: 47.9 ± 2.5 g
  Hematuria (0-4): 0.50 ± 0.17
  Survival Rate: 10/10
[3]; week 46
  Body Weight: 47.6 ± 2.4 g
  Hematuria (0-4): 0.70 ± 0.15
  Survival Rate: 10/10
[3]; week 47
  Body Weight: 47.3 ± 2.8 g
  Hematuria (0-4): 0.60 ± 0.22
  Survival Rate: 10/10
[3]; week 48
  Body Weight: 46.6 ± 2.8 g
  Hematuria (0-4): 0.50 ± 0.17
  Survival Rate: 10/10
[3]; week 49
  Body Weight: 46.9 ± 2.1 g
  Hematuria (0-4): 0.60 ± 0.22
  Survival Rate: 10/10
[3]; week 50
  Body Weight: 47.1 ± 2.7 g
  Hematuria (0-4): 0.50 ± 0.17
  Survival Rate: 10/10
[4]; [5]
  Stroke-free rats (2 hours): 8/10
  Stroke-free rats (1 day): 9/10
  Stroke-free rats (7 days): 10/10
[4]; [6]
  Stroke-free rats (3 hrs): 0/10
  Stroke-free rats (2 day): 4/10
  Stroke-free rats (7 day): 9/10
  Stroke-free rats (14 days): 10/10
  Weight Loss (3 days): −13 +/− 7%
  Weight Loss (7 days): −7 +/− 4%
  Weight Loss (14 days): −4 +/− 2%
[4]; post-stroke treatment
  bleeding problem: without bleeding problem
